From patent US9993463B2, “Use of maleimide derivatives for preventing and treating cancer” (CENTOGENE AG, priority 2012, dated 2018)

What was measured:
[1] = system: purified bovine brain tubulin; experiment: Tubulin polymerisation turbidity assay; type: biochemical; details: 1 μM, 340 nm, 37° C.; for shape of OD curve over time / effect on tubulin polymerization: 60 min, FIG. 5C, untreated control sigmoid
Method: Purified bovine brain tubulin was used to measure tubulin-polymerisation by determining turbidity in tubulin samples incubated with compound of example 6 (PDA-66), paclitaxel or nocodazole (all 1 μM) and 0.6% DMSO in water as negative control. Optical density (OD) was measured after initiation of tubulin assembly at a wavelength of 340 nm continuously for 60 min in 1 min intervals at a temperature of 37° C. in a plate reader (Tecan, Mainz, Germany).

[2] = system: human neuronal progenitor cells (hNPCs, ReNcell VM); experiment: Cell proliferation and vitality assay (CASY, current exclusion), hNPCs; type: cell-based; details: for proliferation relative to control: 72 h
Method: (§1) Human neural progenitor cells ReNcell VM (Millipore, Schwalbach, Germany) were cultured on laminin-coated culture-vessels. Culture medium consisted of DMEM/F12 supplemented with B27 media supplement, GlutaMax™, gentamycin and heparin sodium salt and growth factors EGF (epidermal growth factor) and bFGF (basic fibroblast growth factor). The human neuroblastoma cell line SH-SY5Y was obtained from the German Resource Centre for Biological Material DSMZ (Braunschweig, Germany). Cells were cultivated in DMEM, supplemented with 10% FBS, 1% Penicillin-Streptomycin, 4 mM L-Glutamine. The human T cell leukemia cell line Jurkat was obtained from the German Resource Centre for Biological Material DSMZ (Braunschweig, Germany). Cells were cultivated in RPMI 1640 medium, supplemented with 10% FBS, 1% Penicillin-Streptomycin. The murine melanoma cell line B16F10 was obtained from the American Type Culture Collection (ATCC, Manassas, USA), Cells were cultivated in DMEM/GM medium supplemented with 10% FBS, 1% Penicillin-Streptomycin. The mammary gland/breast carcinoma cell line MCF-7 was obtained from American Type Culture Collection (ATCC, Manassas, USA) and cultivated according to standard proceedings in Eagle's Minimum Essential Medium (EMEM). The colon carcinoma cell line SW480 was obtained from American Type Culture Collection (ATCC, Manassas, USA) and cultivated according to standard proceedings in Leibovitz's L15 Medium. The lung carcinoma cell line A549 was obtained from American Type Culture Collection (ATCC, Manassas, USA) and cultivated according to standard proceedings in F-12K Medium (Kaighn's Modification of Ham's F-12 Medium). The liver carcinoma cell line Hep G2 was obtained from American Type Culture Collection (ATCC, Manassas, USA) and cultivated according to standard proceedings in Eagle's Minimum Essential Medium (EMEM).
(§2) Cell proliferation and vitality were measured with a CASY Model TT (Roche, Mannheim, Germany) by electrical current exclusion method. Cells were seeded in defined numbers into 48-well-plates and proliferated for 24 h. Subsequently fresh medium was applied containing compounds or DMSO, in the following referred as control.
5.1 Cytotoxic effects were evaluated using human fetal cells immortalized by transfection with the oncogen v-myc (Donato et al., Differential development of neuronal physiological responsiveness in two human neural stem cell lines. BMC Neurosci.; 8, 2007), also referred to herein as human neuronal progenitor cells, hNPCs, or ReNcell VM, providing a sensitive screening system and cancer cells, namely SH5Y5, Jurkat and B16F10 cells. Cytotoxic effects were measured by comparison of cells numbers of DMSO treated cells (control) and cell numbers of cells treated with compound of above mentioned example 2.6 (PDA66). Cell proliferation and vitality was measured with a CASY Model TT (Roche, Mannheim, Germany) by electrical current exclusion method. Cells were seeded in defined numbers into 48-well-plates and proliferated for 24 h: Subsequently fresh medium was applied containing compound of example 6 (3 μM) (PDA-66) or DMSO, in the following referred as control. Cell number and cell vitality was measured after 72 h.

[3] = system: human T cell leukemia (Jurkat) cells; experiment: Cell proliferation assay (CASY, current exclusion), Jurkat; type: cell-based; details: 72 h
Method: as §1, with “The lung carcinoma cell line A549 was obtained from American Type Culture Collection (ATCC, Manassas, USA) and cultivated according to standard proceedings in F-12K Medium (Kaighn's Modification of Ham's F-12 Medium). The liver carcinoma cell line Hep G2 was obtained from American Type Culture Collection (ATCC, Manassas, USA) and cultivated according to standard proceedings in Eagle's Minimum Essential Medium (EMEM).” left out
(§3) Cell proliferation and vitality were measured with a CASY Model TT (Roche, Mannheim, Germany) by electrical current exclusion method. […]
(§4) 5.2 Furthermore cancer cells were treated with compound of example 2.6 (PDA-66) with a concentration of 3 μM for 72 h and cell number was evaluated using the current exclusion method as described above.
(§5) In a further experiment further cancer cells were treated with compound of example 2.6 (PDA-66) with a concentration of 3 μM or 10 μM for 72 h and cell number was evaluated using the current exclusion method as described above.

[4] = system: murine melanoma cells (B16F10); experiment: Cell proliferation assay (CASY, current exclusion), B16F10; type: cell-based
Method: as §1, §2, §4, §5

[5] = system: MCF-7 cells (mammary gland/breast carcinoma); experiment: Cell proliferation assay (CASY, current exclusion), MCF-7; type: cell-based; details: mamma carcinoma cells (printed MCF-1), 72 h
Method: (§6) Human neural progenitor cells ReNcell VM (Millipore, Schwalbach, Germany) were cultured on laminin-coated culture-vessels. Culture medium consisted of DMEM/F12 supplemented with B27 media supplement, GlutaMax™, gentamycin and heparin sodium salt and growth factors EGF (epidermal growth factor) and bFGF (basic fibroblast growth factor). The human neuroblastoma cell line SH-SY5Y was obtained from the German Resource Centre for Biological Material DSMZ (Braunschweig, Germany). Cells were cultivated in DMEM, supplemented with 10% FBS, 1% Penicillin-Streptomycin, 4 mM L-Glutamine. The human T cell leukemia cell line Jurkat was obtained from the German Resource Centre for Biological Material DSMZ (Braunschweig, Germany). Cells were cultivated in RPMI 1640 medium, supplemented with 10% FBS, 1% Penicillin-Streptomycin. The murine melanoma cell line B16F10 was obtained from the American Type Culture Collection (ATCC, Manassas, USA), Cells were cultivated in DMEM/GM medium supplemented with 10% FBS, 1% Penicillin-Streptomycin. […]
as §3, §5

[6] = system: colon carcinoma cells (SW480); experiment: Cell proliferation assay (CASY, current exclusion), SW480; type: cell-based; details: 72 h
Method: as §6, §3, §5

[7] = system: lung carcinoma cells (A 549); experiment: Cell proliferation assay (CASY, current exclusion), A549; type: cell-based; details: for proliferation relative to control: 72 h
Method: as §1, with “The liver carcinoma cell line Hep G2 was obtained from American Type Culture Collection (ATCC, Manassas, USA) and cultivated according to standard proceedings in Eagle's Minimum Essential Medium (EMEM).” left out
as §3, §5

[8] = system: liver carcinoma cells (HepG2); experiment: Cell proliferation assay (CASY, current exclusion), HepG2; type: cell-based; details: 72 h
Method: as §6, §3, §5

[9] = system: human neuroblastoma cells (SH5Y5); experiment: Cell proliferation assay (CASY, current exclusion), SH5Y5; type: cell-based; details: SH5Y5, 3 μM, 72 h, FIG. 2
Method: as §6, §3, §4

[10] = system: apoptotic cells (AnnexinV/PI); experiment: AnnexinV/PI apoptosis detection (FACS); type: cell-based; details: FIG. 3
Method: To determine the amount of apoptotic and necrotic cells a FITC AnnexinV Apoptosis Detection Kit I was used. For FACS analysis, cells were trypsinised and centrifuged at 100×g at RT for 5 min and washed with PBS without Ca2^+ and Mg^2+. Annexin V and propidium iodide (PI) were added accordingly to the manufacture's instructions. After 15 min incubation at room temperature on a shaker in the dark, the measurement was done by using FACSCalibur (Becton Dickinson, San Jose, USA) in combination with Cell Quest Pro software.

human immortalized cells = experiment: Mitotic arrest in G2/M phase of cell cycle; type: cell-based; details: after 16 h (highest amount), control 17.4±2.3%
Text: As a measure the increase in cells with double DNA content was used, where at all points in time the amount of treated cells was higher in comparison to untreated cells.

bovine neuronal tubulin = experiment: VEC-DIC microscopy of tubulin polymerization; type: biochemical; details: tubulin 2 mg/ml, 37° C., 1 h, FIG. 5A, B
Method: In order to evaluate interference with tubulin polymerisation bovine neuronal tubulin was used, diluted in BRB80 buffer (80 mM PIPES, pH 6.8; MgCl2 1 mM; EGTA 1 mM) at a concentration of 2 mg/ml. After addition of 0.5 mM GTP and 10% DMSO, initiating tubulin polymerisation, the solution samples were incubated at 37° C. in the presence of compound of example 6 (PDA-66). After 1 h the samples were analysed by using video enhanced contrast differential interference contrast (VEC-DIC) microscopy.

SMILES: COC(=O)Nc1nc2ccc(C(=O)c3cccs3)cc2[nH]1 [nocodazole]
- maximal OD after 60 min [1]: 1.01 rel. units
- shape of OD curve over time / effect on tubulin polymerization [1]: nearly linear curve

SMILES: CC(=O)c1ccc(C2=C(c3c(C)[nH]c4ccccc34)C(=O)N(C)C2=O)cc1 [PDA-66, 3-(4-Acetylphenyl)-1-methyl-4-(2-methyl-1H-indol-3-yl)-1H-pyrrole-2,5-dione]
- proliferation relative to control ([2]; 3 μM): 3.6±1.2%
- number of vital cells (vitality) versus control ([2]; 3 μM, FIG. 1 right panel): significantly lower
- proliferation of immortalized cells (cell number) versus control ([2]; 3 μM, up to 72 h, FIG. 1 left panel): no proliferation
- proliferation relative to control ([2]; 10 μM): 0.9±0.2%
- effect of concentration on proliferation of immortalized cells ([2]; FIG. 6): dose-dependent effect
- IC50 ([2]; Homo sapiens, ReNcell VM): 532 nM
- proliferation relative to control ([3]; 3 μM): 18.2±2.2%
- cell numbers versus control ([3]; 3 μM, FIG. 2): reduced or attenuated significantly
- proliferation relative to control ([3]; 10 μM): 31.9±5.9%
- proliferation relative to control ([4]; B16F10, 3 μM, 72 h): 7.2±1.3%
- cell numbers versus control ([4]; B16F10, 3 μM, 72 h, FIG. 2): reduced or attenuated significantly
- proliferation relative to control ([4]; B16F10, at 10 (unit not given), 72 h): 8.3±2.6%
- IC50 ([4]; Mus musculus, B16-F10, B16F10 cells): 1070 nM
- proliferation relative to control ([5]; 3 μM): 43.0±2.8%
- proliferation relative to control ([5]; 10 μM): 38.3±11.8%
- proliferation relative to control ([6]; SW480, 3 μM): 61.3±0.6%
- proliferation relative to control ([6]; SW480, 10 μM): 56.6±6.6%
- proliferation relative to control ([7]; A 549, 3 μM): 57.1±9.2%
- proliferation relative to control ([7]; A 549, 10 μM): 65.7±8.0%
- IC50 ([7]; Homo sapiens, A549 cells): 8980 nM
- proliferation relative to control ([8]; HepG2, 3 μM): 74.8±6.3%
- proliferation relative to control ([8]; HepG2, 10 μM): 47.2±3.8%
- cell numbers versus control [9]: reduced or attenuated significantly
- apoptotic cells (AnnexinV+/PI− and AnnexinV+/PI+) [10]: increase of apoptotic cells
- amount of cells in G2/M phase of cell cycle (human immortalized cells): 68.9±10.3%
- microtubule (MT) polymerization by VEC-DIC microscopy (bovine neuronal tubulin): hindered the MT-polymerization
- maximal OD after 60 min [1]: 1.04 rel. units
- shape of OD curve over time / effect on tubulin polymerization [1]: destabilized tubulin in a way comparable to nocodazole

SMILES: CC(=O)O[C@H]1C(=O)[C@@]2(C)[C@H]([C@H](OC(=O)c3ccccc3)[C@]3(O)C[C@H](OC(=O)[C@H](O)[C@@H](NC(=O)c4ccccc4)c4ccccc4)C(C)=C1C3(C)C)[C@]1(OC(C)=O)CO[C@@H]1C[C@@H]2O [paclitaxel]
- maximal OD after 60 min [1]: 1.18 rel. units
- shape of OD curve over time / effect on tubulin polymerization [1]: comparable shape but with a steeper slope
